Values quoted from earlier work in US20250312405A1, “FOOD SUPPLEMENT COMPRISING NEOHESPERIDIN DIHYROCHALCONE AND PEPPERMINT OIL” (priority 2022, published 2025).

Legend:
Campylobacter jejuni [1] = conditions: doses of 0.25 mM
Campylobacter jejuni [2] = conditions: dose of 0.2 mM
[3] = test system: HT-29 cells co-cultured with immune cells; conditions: doses of 50 μmoles

Row | SMILES | effect on the motility of Campylobacter jejuni (Campylobacter jejuni [1]) | cell invasion (Campylobacter jejuni [2]) | immune-induced epithelial disfunction by Campylobacter jejuni [3]
1 | Cc1ccc(C(C)C)cc1O [carvacrol] | had an effect on the motility | reduced cell invasion | 
2 | COc1cc(/C=C/C(=O)CC(=O)/C=C/c2ccc(O)c(OC)c2)ccc1O [curcumin] |  |  | mitigates the immune-induced epithelial disfunction
